Measurements from patent publication US20090123925A1, “CANCER THERAPY PROGNOSIS AND TARGET” (priority 2005, published 2009).
Read-outs that look alike come from different tables or passages of the source. Where a SMILES comes first, the peptide text is derived from it. The star is where a group is joined. Cbz = O=C(OCc1ccccc1)*; CH2F = FC*

Tests used:
Assay type in all cases: cell-based, human
[1] = test system: carboplatin-resistant A549 cells (A549car15, A549car17.5); conditions: for Fold change of IC50 in resistant line vs. A549 parental line: A549car15 (exposed up to 15 μM carboplatin), MTT, 72 hours
From the text: (§1) The A549 cisplatin-, carboplatin- and oxaliplatin-cells were derived from the A549WT cell lines, by maintaining the cells in increasing concentrations of the relevant drug. […] This generated cisplatin-(A549cis1, A549cis2.5, A549cis5, A549cis7.5 and A549cis10), carboplatin-(A549car1, A549car2.5, A549car5, A549car10, A549car15 and A549car17.5) and oxaliplatin-(A549oxa2.5, A549oxa3, A549ox3.5, A549ox5 and A549oxa7.5) resistant A549 cell lines. The cells were exposed to each drug concentration for at least a 4-week period and allowed to recover in drug-free medium for a minimum of 2 weeks, before culture in a higher concentration of drug.
(§2) Cytotoxicity of each platinum drug in each cell line was determined by MTT (3-(4,5-dimethylthiazole-2-yl)-2,5-diphenyl tetrazolium bromide, Sigma) assay. Cells were seeded onto 96-well plates at a density of 2-3×10^3 cells per well and cultured for 24 hours. Then cells were incubated with relevant concentrations of carboplatin, cisplatin or oxaliplatin for 72 hours. After treatment, 30 μl of MTT (5 mg/ml) in PBS was incubated with cells in a 96-well plate for 4 h at 37° C. Subsequently, the medium containing MTT was removed, and 200 μl of DMSO was added to each well and shaken for 15 minutes. Spectrophotometric absorbance of each well was measured at 560 nm and 630 nm on a microplate reader (Bio-Rad, model 3550). GraphPad Prism 2.01 was used to calculate the IC50 of each platinum drug in different cell lines.
(§3) CA-074 Methyl ester (Sigma) was used to inhibit cathepsin B and caspase inhibitor I: (Z-VAD (OMe)-FMK, Calbiochem, UK) to inhibit caspases. Cathepsin L and K selective inhibitors (Cathepsin L inhibitor IV: Z-FF-FMK and Cathepsin K inhibitor I: 1,3-Bis (N-carbobenzoyloxy-L-leucyl) amino acetone, respectively (Calbiochem, UK)) and non-selective broad range cathepsin inhibitor (E-64d; (2S, 3S)-trans-epoxysuccinyl-L-leucylamido-3-methylbutane ethyl ester (Sigma, UK) were used to inhibit cysteine proteases.

[2] = test system: oxaliplatin-resistant A549 cells (A549ox3, A549ox7.5); conditions: MTT, 72 hours
From the text: as §1, §2, §3

[3] = test system: cisplatin-resistant A549 cells (A549cis7.5, A549cis10); conditions: for Fold change of IC50 in resistant line vs. A549 parental line: A549cis7.5 (exposed up to 7.5 μM cisplatin), MTT, 72 hours
From the text: as §1, §2, §3

[4] = test system: A549 wt cells; conditions: wild-type or resistant A549 NSCLC cells; data not shown
Description: The human NSCLC cell line A549 [from ATCC; CCL-185] was maintained in F12-K and RPMI 1640 (supplemented with 10% foetal bovine serum (FBS), 100 U/ml penicillin, and 100 μg/ml streptomycin at 37° C., 5% CO2) in an incubator.
as §2
CA-074 Methyl ester (Sigma) was used to inhibit cathepsin B and caspase inhibitor I: (Z-VAD (OMe)-FMK, Calbiochem, UK) to inhibit caspases. […]

[5] = A549ox7.5 (exposed up to 7.5 μM oxaliplatin)

Which results are given for `N.N.O=C([O-])C1(C(=O)[O-])CCC1.[Pt+2]` [carboplatin]?
Level of resistance at higher drug concentration ([1]; A549 cells exposed to 17.5 μM carboplatin, compared with 15 μM): remained unchanged; Fold change of IC50 in resistant line vs. A549 parental line [2, 5]: 1.5 fold; Fold change of IC50 in resistant line vs. A549 parental line [3]: 3.4 fold

Which “Fold change of IC50 in resistant line vs. A549 parental line” value (from here on “Fold change of IC50”) [1] does the source give for `N.N.[Cl][Pt][Cl]` [cisplatin] here?
Its value is 3.02 fold.

And the “Fold change of IC50” value [2, 5]?
The value was 1.8 fold.

And the “Level of resistance at higher drug concentration” value ([3]; A549 cells exposed to 10 μM cisplatin, compared with 7.5 μM)?
The value was “remained unchanged”.

How did the “Effect of caspase inhibition on sensitivity to platinum drugs” value [4] turn out when `COC(=O)C[C@H](NC(=O)[C@H](C)NC(=O)[C@@H](NC(=O)OCc1ccccc1)C(C)C)C(=O)CF` [caspase inhibitor I, Z-VAD (OMe)-FMK] (Cbz-Val-Ala-Asp(OMe)-CH2F) was run?
Its value is “did not alter”.

Which “Fold change of IC50” value [1] does the source give for `O=C1[O][Pt]2([NH][C@@H]3CCCC[C@H]3[NH]2)[O]C1=O` [oxaliplatin] here?
Its value is 0.47 fold.

And the “Fold change of IC50” value ([2]; A549 cells exposed up to 3 μM oxaliplatin)?
Its value is 3 fold.

What about the “Fold change of IC50” value [2, 5] of the same compound?
Its value is 5.3 fold.

And the “Fold change of IC50” value [3]?
Its value is 0.54 fold.
